Experimental data from ChEMBL document CHEMBL5303304, “EUbOPEN Chemogenomics Library - IncuCyte” (2023).

What was measured:
Type in all cases: toxicity, cell-based
U2OS = assay: Incucyte cell viability with U2OS; conditions: human, 10 µM, compound concentration 10 uM
HEK-293T = assay: Incucyte cell viability with HEK293T; conditions: human, 10 µM, compound concentration 10 uM
Fibroblast = assay: Incucyte cell viability with human fibroblast; conditions: 10 µM, compound concentration 10 uM
Also: unitless GR value; below 1 slowed growth and below 0 cell loss.

SMILES	Growth Rate (U2OS; 6 h, replicate number 1)	Growth Rate (U2OS; 6 h, replicate number 2)	Growth Rate (U2OS; 12 h, replicate number 1)	Growth Rate (U2OS; 12 h, replicate number 2)	Growth Rate (U2OS; 18 h, replicate number 1)	Growth Rate (U2OS; 18 h, replicate number 2)	Growth Rate (HEK-293T; 6 h, replicate number 1)	Growth Rate (HEK-293T; 12 h, replicate number 1)	Growth Rate (HEK-293T; 12 h, replicate number 2)	Growth Rate (HEK-293T; 18 h, replicate number 1)	Growth Rate (HEK-293T; 18 h, replicate number 2)	Growth Rate (HEK-293T; 24 h, replicate number 1)	Growth Rate (HEK-293T; 24 h, replicate number 2)	Growth Rate (Fibroblast; 6 h, replicate number 2)	Growth Rate (Fibroblast; 12 h, replicate number 2)	Growth Rate (Fibroblast; 18 h, replicate number 2)	Growth Rate (Fibroblast; 24 h, replicate number 2)	Growth Rate (HEK-293T; 6 h, replicate number 2)	Growth Rate (U2OS; 0 h, replicate number 1)	Growth Rate (Fibroblast; 6 h, replicate number 1)	also measured
O=C1NCc2ccc3c(-c4cccc(Cl)c4)c[nH]c3c21	-0.34	0.05	-0.32	-0.15	-0.16	-0.11	-0.5	-0.49	-0.24	-0.21	-0.13	-0.06	-0.07	-1	-0.89	-0.75	-0.57	–	–	–	Growth Rate (U2OS; 24 h, replicate number 1): -0.1; Growth Rate (U2OS; 24 h, replicate number 2): -0.06; Growth Rate (Fibroblast; 12 h, replicate number 1): -1; Growth Rate (Fibroblast; 18 h, replicate number 1): -0.89; Growth Rate (Fibroblast; 24 h, replicate number 1): -0.46
CNc1nc(NCc2ncccn2)c2c(-c3ccc4ncccc4c3)c[nH]c2n1	0.78	0.82	–	0.7	0.84	0.85	0.58	0.9	0.84	0.83	0.8	0.84	0.86	–	–	–	–	0.42	–	–	Growth Rate (U2OS; 24 h, replicate number 1): 0.94; Growth Rate (U2OS; 24 h, replicate number 2): 0.86; Growth Rate (Fibroblast; 0 h, replicate number 1): -0.08; Growth Rate (Fibroblast; 0 h, replicate number 2): -0.54; Growth Rate (Fibroblast; 12 h, replicate number 1): -0.94; Growth Rate (Fibroblast; 18 h, replicate number 1): 0.83
NC(=O)c1cc2c(-c3ccc(C(=O)NCc4ccnc(Cl)c4)s3)cccc2s1	-0.24	-0.51	0.05	-0.23	0	-0.03	-0.51	-0.4	-0.32	-0.29	-0.17	-0.23	-0.09	-0.95	-0.43	-0.25	-0.11	-0.71	-0.34	-1	Growth Rate (U2OS; 0 h, replicate number 2): 0.46; Growth Rate (U2OS; 24 h, replicate number 1): 0.05; Growth Rate (U2OS; 24 h, replicate number 2): 0.03
COc1cc(C(=O)N2CC[C@@H](O)[C@@H](N)C2)cc2nc(-c3cc4ccccc4n3CC3CC3)n(C)c12.Cl	–	–	–	–	–	–	0.46	0.73	0.39	0.82	0.3	0.58	0.27	-0.02	0.16	0.2	0.27	-0.12	-0.93	-1	–
CC(C)n1cc(-c2ccc(N3CCN(C)CC3)c(NC(=O)c3ccc(-c4ccncc4)o3)c2)cn1	–	–	0.96	–	–	–	-0.65	-0.36	-0.01	-0.19	0.15	-0.08	0.31	0.11	0.45	0.67	0.65	-0.31	-0.65	-0.97	Growth Rate (U2OS; 0 h, replicate number 2): -0.8; Growth Rate (Fibroblast; 0 h, replicate number 2): -0.35
CCn1c(-c2nc3cc(C(=O)N4CCCC(N)C4)ccc3n2C)cc2ccccc21.Cl (configuration not stated)	–	–	–	–	–	–	0.45	–	0.8	–	0.89	–	0.87	0.59	0.96	0.78	0.77	0.09	-0.07	-0.88	Growth Rate (U2OS; 0 h, replicate number 2): -0.69
